Source: ChEMBL document CHEMBL1201861, “Genomics of Drug Sensitity in Cancer screening data, Wellcome Trust Sanger Institute”

How the values were obtained:
Assay in all cases: cells
Format in all cases: functional, cell-based, Homo sapiens
COLO-829 = settings: Homo sapiens, COLO-829
Description: SANGER: Inhibition of human COLO-829 cell growth in a cell viability assay.

D-392MG = settings: Homo sapiens, D-392MG
DB = settings: Homo sapiens, DB
Description: SANGER: Inhibition of human DB cell growth in a cell viability assay.

DEL = settings: Homo sapiens, DEL;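 note: growth inhibition of the human DEL cell line, read out with a cell viability assay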
Description: SANGER: Inhibition of human DEL cell growth in a cell viability assay.

DOHH-2 = settings: Homo sapiens, DOHH-2;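 note: growth inhibition of human DOHH-2 cells, read out with a cell viability assay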
Description: SANGER: Inhibition of human DOHH-2 cell growth in a cell viability assay.

EKVX = settings: Homo sapiens, EKVX;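 note: growth inhibition of human EKVX cells, read out with a cell viability assay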
Description: SANGER: Inhibition of human EKVX cell growth in a cell viability assay.

ES4 = settings: Homo sapiens, ES4;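 note: growth inhibition of human ES4 cells, read out by a cell viability assay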
Description: SANGER: Inhibition of human ES4 cell growth in a cell viability assay.

EW-18 = settings: Homo sapiens, EW-18;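 note: growth inhibition of EW-18 cells, read out by a cell viability assay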
Description: SANGER: Inhibition of human EW-18 cell growth in a cell viability assay.

GR-ST = settings: Homo sapiens, GR-ST
Description: SANGER: Inhibition of human GR-ST cell growth in a cell viability assay.

HCC1187 = settings: Homo sapiens, HCC1187;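 note: growth inhibition of HCC1187 cells, read out with a cell viability assay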
Description: SANGER: Inhibition of human HCC1187 cell growth in a cell viability assay.

HCC2218 = settings: Homo sapiens, HCC2218;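 note: cell viability assay read-out, with IC50 given as the concentration that inhibits growth of the cell line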
Description: SANGER: Inhibition of human HCC2218 cell growth in a cell viability assay.

HT-144 = settings: Homo sapiens, HT-144
Description: SANGER: Inhibition of human HT-144 cell growth in a cell viability assay.

IST-SL1 = settings: Homo sapiens, IST-SL1;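 note: growth inhibition of human IST-SL1 cells, read out with a cell viability assay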
Description: SANGER: Inhibition of human IST-SL1 cell growth in a cell viability assay.

J-RT3-T3-5 = settings: Homo sapiens, J-RT3-T3-5;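 note: cell viability assay measuring growth inhibition of human J-RT3-T3-5 cells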
Description: SANGER: Inhibition of human J-RT3-T3-5 cell growth in a cell viability assay.

JVM-3 = settings: Homo sapiens, JVM-3;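 note: growth inhibition of human JVM-3 cells, read out with a cell viability assay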
Description: SANGER: Inhibition of human JVM-3 cell growth in a cell viability assay.

KALS-1 = settings: Homo sapiens, KALS-1;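 note: growth inhibition of KALS-1 cells, determined with a cell viability assay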
Description: SANGER: Inhibition of human KALS-1 cell growth in a cell viability assay.

KARPAS-45 = settings: Homo sapiens, KARPAS-45;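 note: inhibition of cell line growth, read out through a viability assay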
Description: SANGER: Inhibition of human KARPAS-45 cell growth in a cell viability assay.

KE-37 = settings: Homo sapiens, KE-37;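 note: growth inhibition of KE-37 cells, read out with a cell viability assay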
Description: SANGER: Inhibition of human KE-37 cell growth in a cell viability assay.

KGN = settings: Homo sapiens, KGN;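 note: growth inhibition of KGN cells, read out with a cell viability assay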
Description: SANGER: Inhibition of human KGN cell growth in a cell viability assay.

KINGS-1 = settings: Homo sapiens, KINGS-1;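 note: cell viability assay measuring suppression of KINGS-1 cell growth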
Description: SANGER: Inhibition of human KINGS-1 cell growth in a cell viability assay.

LS-1034 = settings: Homo sapiens, LS-1034
Description: SANGER: Inhibition of human LS-1034 cell growth in a cell viability assay.

MMAC-SF = settings: Homo sapiens, MMAC-SF;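 note: growth inhibition of human MMAC-SF cells, read out with a cell viability assay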
Description: SANGER: Inhibition of human MMAC-SF cell growth in a cell viability assay.

MN-60 = settings: Homo sapiens, MN-60;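 note: growth inhibition of the MN-60 cell line, determined with a cell viability assay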
Description: SANGER: Inhibition of human MN-60 cell growth in a cell viability assay.

MOLT-16 = settings: Homo sapiens, MOLT-16;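 note: growth inhibition of human MOLT-16 cells, read out with a cell viability assay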
Description: SANGER: Inhibition of human MOLT-16 cell growth in a cell viability assay.

NB5 = settings: Homo sapiens, NB5;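 note: growth inhibition of NB5 cells, read out as cell viability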
Description: SANGER: Inhibition of human NB5 cell growth in a cell viability assay.

NCI-H1355 = settings: Homo sapiens, NCI-H1355;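 note: growth inhibition of human NCI-H1355 cells, read out by a cell viability assay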
Description: SANGER: Inhibition of human NCI-H1355 cell growth in a cell viability assay.

NCI-H1581 = settings: Homo sapiens, NCI-H1581;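 note: cell growth inhibition read out by a viability assay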
Description: SANGER: Inhibition of human NCI-H1581 cell growth in a cell viability assay.

NCI-H1648 = settings: Homo sapiens, NCI-H1648;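 note: cell viability assay measuring inhibition of NCI-H1648 cell growth, from the Sanger screening data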
Description: SANGER: Inhibition of human NCI-H1648 cell growth in a cell viability assay.

SNU1 = settings: Homo sapiens, SNU1;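 note: growth inhibition of human NCI-SNU-1 cells, measured with a cell viability assay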
Description: SANGER: Inhibition of human NCI-SNU-1 cell growth in a cell viability assay.

NOMO-1 = settings: Homo sapiens, NOMO-1;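 note: growth inhibition of human NOMO-1 cells measured by a cell viability assay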
Description: SANGER: Inhibition of human NOMO-1 cell growth in a cell viability assay.

RH-1 = settings: Homo sapiens, RH-1;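 note: growth inhibition of human RH-1 cells, read out with a cell viability assay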
Description: SANGER: Inhibition of human RH-1 cell growth in a cell viability assay.

RKO = settings: Homo sapiens, RKO;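 note: growth inhibition of human RKO cells, read out with a cell viability assay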
Description: SANGER: Inhibition of human RKO cell growth in a cell viability assay.

RXF 393 = settings: Homo sapiens, RXF 393;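 note: growth inhibition of human RXF 393 cells, read out with a cell viability assay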
Description: SANGER: Inhibition of human RXF393 cell growth in a cell viability assay.

Ramos-2G6-4C10 = settings: Homo sapiens, Ramos-2G6-4C10;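 note: growth inhibition of the cell line, measured by a cell viability read-out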
Description: SANGER: Inhibition of human Ramos-2G6-4C10 cell growth in a cell viability assay.

SF-268 = settings: Homo sapiens, SF-268;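 note: growth inhibition of SF-268 cells determined with a cell viability assay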
Description: SANGER: Inhibition of human SF268 cell growth in a cell viability assay.

SNB-75 = settings: Homo sapiens, SNB-75;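 note: cell viability assay measuring growth inhibition of human SNB-75 cells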
Description: SANGER: Inhibition of human SNB75 cell growth in a cell viability assay.

SW684 = settings: Homo sapiens, SW684;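 note: growth inhibition of human SW684 cells, measured by a cell viability assay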
Description: SANGER: Inhibition of human SW684 cell growth in a cell viability assay.

A101D = settings: Homo sapiens, A101D;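 note: growth inhibition of the cell line, measured with a viability assay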
Description: SANGER: Inhibition of human A101D cell growth in a cell viability assay.

A253 cell line = settings: Homo sapiens, A253;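 note: growth inhibition of A253 cells, read out with a cell viability assay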
Description: SANGER: Inhibition of human A253 cell growth in a cell viability assay.

A704 = settings: Homo sapiens, A704;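 note: growth inhibition of human A704 cells, read out with a cell viability assay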
Description: SANGER: Inhibition of human A704 cell growth in a cell viability assay.

BB30-HNC = settings: Homo sapiens, BB30-HNC;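 note: growth inhibition of the cultured cell line, read out by a cell viability assay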
Description: SANGER: Inhibition of human BB30-HNC cell growth in a cell viability assay.

C2BBe1 = settings: Homo sapiens, C2BBe1;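 note: growth inhibition of C2BBe1 cells, read out through a viability assay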
Description: SANGER: Inhibition of human C2BBe1 cell growth in a cell viability assay.

no-10 = settings: Homo sapiens;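 note: growth inhibition of no-10 cells, read out with a cell viability assay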
Description: SANGER: Inhibition of human no-10 cell growth in a cell viability assay.

CCRF-CEM = settings: Homo sapiens, CCRF-CEM;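 note: inhibition of CCRF-CEM cell growth, measured by a cell viability assay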
Description: SANGER: Inhibition of human CCRF-CEM cell growth in a cell viability assay.

COLO-320-HSR = settings: Homo sapiens, COLO-320-HSR;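 note: growth inhibition of COLO-320-HSR cells, determined with a cell viability assay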
Description: SANGER: Inhibition of human COLO-320-HSR cell growth in a cell viability assay.

EC-GI-10 = settings: Homo sapiens, EC-GI-10
Description: SANGER: Inhibition of human EC-GI-10 cell growth in a cell viability assay.

LB373-MEL-D = settings: Homo sapiens, LB373-MEL-D;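 note: growth inhibition of the cell line, read out in a cell viability assay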
Description: SANGER: Inhibition of human LB373-MEL-D cell growth in a cell viability assay.

For `CCN(CC)CCCCNc1ncc2cc(-c3cc(OC)cc(OC)c3)c(NC(=O)NC(C)(C)C)nc2n1` [PD-173074], the IC50 (COLO-829) was over 2 µM, the IC50 (D-392MG) was over 2 µM and the IC50 (DB) was over 2 µM. It also gave an IC50 (DEL) of over 2 µM, an IC50 (DOHH-2) of over 2 µM and an IC50 (EKVX) of over 2 µM. The IC50 (ES4) was over 2 µM, the IC50 (EW-18) was over 2 µM and the IC50 (GR-ST) was over 2 µM. For the same compound, the IC50 (HCC1187) was over 2 µM, the IC50 (HCC2218) was over 2 µM and the IC50 (HT-144) was over 2 µM. For the same compound, the IC50 (IST-SL1) was over 2 µM, the IC50 (J-RT3-T3-5) was over 2 µM and the IC50 (JVM-3) was over 2 µM. For the same compound, the IC50 (KALS-1) was over 2 µM, the IC50 (KARPAS-45) was over 2 µM and the IC50 (KE-37) was over 2 µM. It also gave an IC50 (KGN) of over 2 µM, an IC50 (KINGS-1) of over 2 µM and an IC50 (LS-1034) of over 2 µM. The IC50 (MMAC-SF) was over 2 µM, the IC50 (MN-60) was over 2 µM and the IC50 (MOLT-16) was over 2 µM. For the same compound, the IC50 (NB5) was over 2 µM, the IC50 (NCI-H1355) was over 2 µM and the IC50 (NCI-H1581) was 0.0123 µM. It also gave an IC50 (NCI-H1648) of over 2 µM, an IC50 (SNU1) of over 2 µM and an IC50 (NOMO-1) of over 2 µM. It also gave an IC50 (RH-1) of over 2 µM, an IC50 (RKO) of over 2 µM and an IC50 (RXF 393) of over 2 µM. It also gave an IC50 (Ramos-2G6-4C10) of over 2 µM, an IC50 (SF-268) of over 2 µM and an IC50 (SNB-75) of over 2 µM. For the same compound, the IC50 (SW684) was over 2 µM, the IC50 (A101D) was over 2 µM and the IC50 (A253 cell line) was over 2 µM. It also gave an IC50 (A704) of over 2 µM, an IC50 (BB30-HNC) of over 2 µM and an IC50 (C2BBe1) of over 2 µM. The IC50 (no-10) was over 2 µM, the IC50 (CCRF-CEM) was over 2 µM and the IC50 (COLO-320-HSR) was over 2 µM.
`COc1cc2c(Nc3ccc(NC(=O)c4ccccc4)cc3)ncnc2cc1OCCCN1CCOCC1` gave an IC50 (COLO-829) of 2.64 µM, an IC50 (D-392MG) of over 4 µM and an IC50 (DB) of over 4 µM. It also gave an IC50 (DEL) of 2.75 µM, an IC50 (DOHH-2) of 1.4 µM and an IC50 (EKVX) of over 4 µM. The IC50 (ES4) was over 4 µM, the IC50 (EW-18) was over 4 µM and the IC50 (GR-ST) was over 4 µM. For the same compound, the IC50 (HCC1187) was over 4 µM, the IC50 (HCC2218) was over 4 µM and the IC50 (HT-144) was over 4 µM. The IC50 (IST-SL1) was 1.32 µM, the IC50 (J-RT3-T3-5) was over 4 µM and the IC50 (JVM-3) was 2.75 µM. For the same compound, the IC50 (KALS-1) was over 4 µM, the IC50 (KARPAS-45) was 0.381 µM and the IC50 (KE-37) was 1.21 µM. It also gave an IC50 (KGN) of over 4 µM, an IC50 (KINGS-1) of over 4 µM and an IC50 (LS-1034) of over 4 µM. The IC50 (MMAC-SF) was over 4 µM, the IC50 (MN-60) was over 4 µM and the IC50 (MOLT-16) was 0.61 µM. For the same compound, the IC50 (NB5) was 1.84 µM, the IC50 (NCI-H1355) was over 4 µM and the IC50 (NCI-H1581) was 1.68 µM. It also gave an IC50 (NCI-H1648) of over 4 µM, an IC50 (SNU1) of 3.11 µM and an IC50 (NOMO-1) of 1.37 µM. The IC50 (RH-1) was over 4 µM, the IC50 (RKO) was 0.707 µM and the IC50 (RXF 393) was 3.49 µM. For the same compound, the IC50 (Ramos-2G6-4C10) was 1.41 µM, the IC50 (SF-268) was over 4 µM and the IC50 (SNB-75) was over 4 µM. For the same compound, the IC50 (SW684) was over 4 µM, the IC50 (A101D) was over 4 µM and the IC50 (A253 cell line) was over 4 µM. For the same compound, the IC50 (A704) was over 4 µM, the IC50 (BB30-HNC) was 2.54 µM and the IC50 (C2BBe1) was over 4 µM. The IC50 (no-10) was over 4 µM, the IC50 (CCRF-CEM) was 1.87 µM and the IC50 (COLO-320-HSR) was over 4 µM.
Work on `Cn1cnc2c(F)c(Nc3ccc(Br)cc3Cl)c(C(=O)NOCCO)cc21` [SELUMETINIB] yielded an IC50 (D-392MG) of over 4 µM, an IC50 (DB) of over 4 µM and an IC50 (DEL) of over 4 µM. The IC50 (DOHH-2) was over 4 µM, the IC50 (EKVX) was over 4 µM and the IC50 (ES4) was over 4 µM. The IC50 (EW-18) was over 4 µM, the IC50 (GR-ST) was over 4 µM and the IC50 (HCC1187) was over 4 µM. It also gave an IC50 (HCC2218) of 2.48 µM, an IC50 (HT-144) of 0.089 µM and an IC50 (IST-SL1) of over 4 µM. The IC50 (J-RT3-T3-5) was over 4 µM, the IC50 (JVM-3) was 0.701 µM and the IC50 (KARPAS-45) was 2.08 µM. It also gave an IC50 (KE-37) of over 4 µM, an IC50 (KGN) of over 4 µM and an IC50 (KINGS-1) of over 4 µM. For the same compound, the IC50 (LS-1034) was over 4 µM, the IC50 (MN-60) was over 4 µM and the IC50 (MOLT-16) was over 4 µM. The IC50 (NB5) was 2.57 µM, the IC50 (NCI-H1355) was over 4 µM and the IC50 (NCI-H1581) was over 4 µM. The IC50 (SNU1) was 1.77 µM, the IC50 (NOMO-1) was 0.032 µM and the IC50 (RH-1) was over 4 µM. The IC50 (RKO) was 0.248 µM, the IC50 (RXF 393) was over 4 µM and the IC50 (Ramos-2G6-4C10) was over 4 µM. For the same compound, the IC50 (SF-268) was over 4 µM, the IC50 (SNB-75) was over 4 µM and the IC50 (SW684) was over 4 µM. The IC50 (A101D) was 0.24 µM, the IC50 (A253 cell line) was over 4 µM and the IC50 (A704) was over 4 µM. For the same compound, the IC50 (BB30-HNC) was 2.71 µM, the IC50 (C2BBe1) was 0.273 µM and the IC50 (no-10) was over 4 µM. For the same compound, the IC50 (CCRF-CEM) was over 4 µM and the IC50 (COLO-320-HSR) was over 4 µM.
In the case of `CC(C)c1ccccc1Cc1cc(C(=O)Nc2ccc(S(=O)(=O)c3ccccc3C(C)(C)C)cc2)c(O)c(O)c1O`, the IC50 (COLO-829) is reported as 0.701 µM, the IC50 (D-392MG) is reported as 1.42 µM and the IC50 (EC-GI-10) is reported as 0.47 µM. It also gave an IC50 (EKVX) of 7.14 µM, an IC50 (ES4) of 0.516 µM and an IC50 (HCC1187) of 0.425 µM. For the same compound, the IC50 (HT-144) was 0.152 µM, the IC50 (IST-SL1) was 0.438 µM and the IC50 (KALS-1) was 0.253 µM. It also gave an IC50 (KGN) of 0.436 µM, an IC50 (KINGS-1) of 2.75 µM and an IC50 (LB373-MEL-D) of 0.431 µM. It also gave an IC50 (LS-1034) of 1.36 µM, an IC50 (MMAC-SF) of 3.14 µM and an IC50 (NB5) of 0.423 µM. For the same compound, the IC50 (NCI-H1355) was 1.29 µM, the IC50 (NCI-H1581) was 0.0676 µM and the IC50 (NCI-H1648) was 1.12 µM. For the same compound, the IC50 (RH-1) was 0.158 µM, the IC50 (RKO) was 0.0152 µM and the IC50 (RXF 393) was 1.21 µM. For the same compound, the IC50 (SF-268) was 0.272 µM, the IC50 (SW684) was 8.83 µM and the IC50 (A101D) was 0.0875 µM. It also gave an IC50 (A253 cell line) of 0.57 µM, an IC50 (BB30-HNC) of 0.162 µM and an IC50 (C2BBe1) of 0.266 µM. It also gave an IC50 (no-10) of 0.277 µM.
`CC1(C)CNc2cc(NC(=O)c3cccnc3NCc3ccncc3)ccc21` [MOTESANIB] was tested, and the IC50 (COLO-829) was over 2 µM, the IC50 (D-392MG) was over 2 µM and the IC50 (DB) was over 2 µM. It also gave an IC50 (DEL) of over 2 µM, an IC50 (DOHH-2) of over 2 µM and an IC50 (EKVX) of over 2 µM. The IC50 (ES4) was over 2 µM, the IC50 (EW-18) was over 2 µM and the IC50 (GR-ST) was over 2 µM. For the same compound, the IC50 (HCC1187) was over 2 µM, the IC50 (HCC2218) was over 2 µM and the IC50 (HT-144) was over 2 µM. For the same compound, the IC50 (IST-SL1) was over 2 µM, the IC50 (J-RT3-T3-5) was over 2 µM and the IC50 (JVM-3) was over 2 µM. For the same compound, the IC50 (KALS-1) was over 2 µM, the IC50 (KARPAS-45) was over 2 µM and the IC50 (KE-37) was over 2 µM. It also gave an IC50 (KGN) of over 2 µM, an IC50 (KINGS-1) of over 2 µM and an IC50 (LS-1034) of over 2 µM. It also gave an IC50 (MMAC-SF) of over 2 µM, an IC50 (MN-60) of over 2 µM and an IC50 (MOLT-16) of over 2 µM. It also gave an IC50 (NB5) of over 2 µM, an IC50 (NCI-H1355) of over 2 µM and an IC50 (NCI-H1581) of over 2 µM. For the same compound, the IC50 (NCI-H1648) was 0.686 µM, the IC50 (SNU1) was over 2 µM and the IC50 (NOMO-1) was over 2 µM. The IC50 (RH-1) was over 2 µM, the IC50 (RKO) was over 2 µM and the IC50 (RXF 393) was over 2 µM. It also gave an IC50 (Ramos-2G6-4C10) of over 2 µM, an IC50 (SF-268) of over 2 µM and an IC50 (SNB-75) of over 2 µM. It also gave an IC50 (SW684) of over 2 µM, an IC50 (A101D) of over 2 µM and an IC50 (A253 cell line) of over 2 µM. It also gave an IC50 (A704) of over 2 µM, an IC50 (BB30-HNC) of over 2 µM and an IC50 (C2BBe1) of over 2 µM. It also gave an IC50 (no-10) of over 2 µM, an IC50 (CCRF-CEM) of over 2 µM and an IC50 (COLO-320-HSR) of over 2 µM.
